Converted amounts (≈) assume the structure as drawn. Where two headings read alike, the source gives them in different places.
Experiments:
[1] = system: human foreskin fibroblasts (HFF); experiment: Cytotoxicity in human foreskin fibroblasts, day 15 (MTT / CyQUANT); assay type: cell-based; settings: for IC50: Homo sapiens, Fibroblast
Method: (§1) In general, the presently disclosed embryotoxicity testing protocols comprise the following sequence of steps. Studies using embryoid bodies generally comprise: a) preparation of various concentrations of test solutions in culture medium or a desired solvent; b) preparation of a cell suspension by enzymatic digestion of human embryonic stem cell colonies; c) culturing the cell suspension for formation of embryoid bodies in the presence and absence of one or more test solutions, and incubation for several days (e.g., three days) in hanging drops; d) cultivation of the embryoid bodies in bacteriological petri dishes for several days (e.g., two days) under controlled conditions; e) transfer of the embryoid bodies into 96 well plates and incubation for several days (e.g., 10 days) in the presence of one or more test solutions; and f) detection of the viability of the embryoid bodies after 15 days by MTT assay, or fluorescent or luminescent method, and isolation of RNA for studying gene expression. Studies using human foreskin fibroblasts (HFF) generally comprise: a) preparation of various concentrations of test solutions in culture medium or a desired solvent; b) plating of HFF cells in 96 well plates in the presence or absence of one or more test solutions for 15 days, changing the media and test solutions every 2 days; and c) detection of the viability of HFF after 15 days by MTT assay, or fluorescent or luminescent method. Studies using human embryonic stem cells generally comprise: a) preparation of various concentrations of test solutions in culture medium or a desired solvent; b) preparation of hES colonies by manual passage in the presence and absence of one or more test solutions, and incubation for 15 days on matrigel coated plates changing the media and test solutions every 2 days; c) disruption of the colonies after 15 days with enzymes to form single cells; d) labeling of single cells with a fluorescently-labeled dye, such as propidium iodide (“PI”); and e) detection of the percentage viability with FACS as a measure of cytotoxicity.
HFF were trypsinized, and a cell suspension of 1×10^4 cells/ml in routine culture medium was prepared. Using a multi-channel pipette, 50 μl volumes of the cell suspension (500 cells/well) was dispensed. Viability of the cells can be checked by staining an aliquot of the cell suspension with trypan blue. A viability of 90% is acceptable. The cells were incubated for 2 hours in a humidified atmosphere with 5% CO2 at 37° C., which allows for adherence of the cells. After 15 days of culture with medium changes (containing appropriate test compound concentrations) every 3 days, the viability of the cells was determined using the MTT test, which was detected quantitatively using a microplate ELISA reader at 570 nm with a 630 nm reference filter.
Cytotoxicity analysis of three cell types (hES, hEBs and HFF) was evaluated using the CyQUANT assay following compound treatment. All data were the mean of three independent experiments for each cell type. Data is represented as the mean±SE.
The endpoints of detection chosen in the study was inhibition of cell proliferation in human ES cells (IC50 hES), differentiating EBs (IC50 hEB), and in HFF (IC50 HFF), as evidenced in a cell viability assay using CyQuant assay.

[2] = system: human embryoid bodies (hEB); experiment: Cytotoxicity in human embryoid bodies, day 15 (MTT / CyQUANT); settings: for IC50: Homo sapiens
Method: as §1
The culturing of the cell suspension is done by dispensing about ¼ of the cell suspension along with test chemicals on the inner side of a 100 mm bacteriological petri dish. Around 50-80 drops are dispensed for each concentration, the untreated control, and the solvent control. The lid is turned carefully into its regular position and is put on top of a petri dish containing 5 ml of phosphate buffered saline (“PBS”). The “hanging drops” are incubated for three days in a humidified atmosphere with 5% CO2 at 37° C.
On day 3, 5 ml of freshly prepared test solution is added to the lid of the “hanging drops” petri dish. The embryoid bodies are carefully transferred from the lid of the “hanging drops” petri dish to a 60 mm bacteriological petri dish. The suspension is cultivated for two days in a humidified atmosphere with 5% CO2 at 37° C.
On the 5th day, the EBs are transferred into 96 well plates by placing 10 EBs in each well. About 150 μl of freshly prepared test solution is added to each well, and three wells are used for each concentration. The 96 well plates are incubated for […] in a humidified atmosphere with 5% CO2 at 37° C. The remaining EBs are plated on a 24 well plate coated with 0.2% gelatin and allowed to differentiate. Media was replaced every second day until day 15.
On the 15th day, an MTT assay is performed. MTT solution (5 mg/ml) is prepared in culture medium containing test chemical. The MTT solution is added to all wells and incubated at 37° C. in a humidified atmosphere of 5% CO2 for 4 hours, after which the MTT desorb solution (acidified isopropanol) is added to each well. The plate is shaken on a micrometer plate for 15 minutes to dissolve the formazan. The absorbance is measured at 550-570 nm in a microtiter plate reader using 630 nm as a reference wavelength.

[3] = system: human embryoid bodies (hEBs); experiment: Morphological evaluation of embryoid bodies (photomicrographs); assay type: cell-based; settings: for concentration required to elicit a similar morphological response (loss of compactness, decreased EB size): day 7 hEBs, FIG. 4A-4D; for morphology of treated hEBs compared to controls: day 7, 10 μg/ml (FIG. 4E-c, 4F-c)
Method: Hanging drops were made in hES media with LIF and bFGF for calculating IC50-hES cells, and in hES media without LIF and bFGF (hEB media) for the formation of EBs. On day 3 the hES colonies were collected along with the respective test compound concentration, whereas the hEBs were collected and transferred to 60 mm bacteriological petri plates for another 2 days. Morphology of the EBs was monitored under the microscope for the formation of EBs. On day 5 the hEBs were plated in a 96 well plate for MTT, as well as on a 6 well plate for RNA extraction. The media along with the appropriate test compound concentration was replaced in the 96 well and 6 well plates on days 7, 9, 11, and 13. On day 15, MTT was performed on the hES plate and the differentiated EBs. RNA was extracted from all the concentrations of 5-fluorouracil, and 1 μg of RNA was converted to cDNA to perform RT-PCR, real time PCR, or TLDA.

[4] = 360 h, Table 3, mean of 3 experiments, day 15, read-out: IC50-HFF
[5] = Table 4, CyQuant cell viability assay, read-out: Human EST IC50 - HFF

| SMILES | IC50 [1, 4] [µg/mL] | IC50 [1, 5] [µg/mL] | IC50 ([2]; 360 h, read-out: IC50-hEB) [µg/mL] | IC50 ([2]; read-out: IC50-hEBs) [µg/mL] | concentration required to elicit a similar morphological response (loss of compactness, decreased EB size) [3] [μg/ml] | morphology of treated hEBs compared to controls [3] | further results |
| --- | --- | --- | --- | --- | --- | --- | --- |
| COc1ccc2c(c1)c(CC(=O)O)c(C)n2C(=O)c1ccc(Cl)cc1 [Indomethacin, indomethacin] | 33.5 ± 1.3 (≈ 93.6 µM) | 33.5 ± 1.3 (≈ 93.6 µM) | 4.49 ± 0.84 (≈ 12.5 µM) | 4.49 (≈ 12.5 µM) | 100 |  |  |
| O=c1[nH]cc(F)c(=O)[nH]1 [5-Fluorouracil, 5-fluorouracil] | 0.11 (≈ 0.848 µM) |  | 0.00114 (≈ 0.00873 µM) |  |  |  | survival percentage ([1]; HFF, 1 μg/ml, day 15, FIG. 3A): 7%; effect on cell viability ([1]; HFF, up to 0.01 μg/ml, FIG. 3A): no major effect; survival of hEBs until day 15 ([2]; 1 μg/ml (highest dose)): did not survive until day 15; effect on cell viability ([2]; hEBs, 0.01 μg/ml, FIG. 3A): significant effect; survival percentage ([2]; hEBs, 1 μg/ml, day 15, FIG. 3A): 7%; morphology of 5 day old EBs compared to control ([3]; 1 μg/ml, day 5, FIG. 2A): significant change in the morphology |
| Cn1c(=O)c2c(ncn2C)n(C)c1=O [Caffeine, caffeine] | 79.3 ± 3.4 (≈ 408 µM) | 79.3 ± 3.4 (≈ 408 µM) | 81.6 ± 5.4 (≈ 420 µM) | 81.6 (≈ 420 µM) |  |  | survival ([1]; HFF, 500 μg/ml, FIG. 3B): about 10%; survival ([2]; hEBs, 500 μg/ml, FIG. 3B): about 10%; morphology of 5 day old EBs ([3]; increasing dose (50 and 500 μg/ml), day 5, FIG. 2B): significant darkening of the cells |
| CS(=O)(=O)OCCCCOS(C)(=O)=O [Busulfan, busulfan] | 2.7 ± 0.2 (≈ 11 µM) | 2.7 ± 0.2 (≈ 11 µM) | 0.38 ± 0.03 (≈ 1.54 µM) | 0.38 (≈ 1.54 µM) |  | loss of compactness and a decrease in the size of the EBs | cell survival ([2]; hEBs, 1 μg/ml, CyQUANT, FIG. 4E): 30% |
| NC(=O)NO [Hydroxyurea, hydroxyurea] | 8.9 ± 0.9 (≈ 117 µM) | 8.9 ± 0.9 (≈ 117 µM) | 2.33 ± 0.2 (≈ 30.6 µM) | 2.3 (≈ 30.2 µM) |  | loss of compactness and a decrease in the size of the EBs |  |
| CC1(C)S[C@@H]2[C@H](NC(=O)Cc3ccccc3)C(=O)N2[C@H]1C(=O)O [Penicillin G, penicillin G] |  |  |  |  | 5000 |  | cell survival ([1]; HFF, 5000 μg/ml (highest dose), FIG. 3C): 1-2%; IC50-HFF ([1]; Table 3, mean of 3 experiments, day 15): 1661 ± 23.5 µg/mL (≈ 4970 µM); Human EST IC50 - HFF ([1]; Table 4, CyQuant cell viability assay): 1661 ± 23.5 µg/mL; cytotoxic effects in hEBs compared to hES cells and HFF ([2]; 1000 μg/ml, FIG. 3C): more cytotoxic effects; IC50-hEBs ([2]; Table 5): 1300 µg/mL (≈ 3890 µM); cell survival ([2]; hEBs, 1000 μg/ml, CyQUANT, FIG. 4A/4B): about 60%; cell survival ([2]; hEBs, 5000 μg/ml (highest dose), FIG. 3C): 30%; morphology of 5 day old EBs ([3]; 5000 μg/ml (highest dose), day 5, FIG. 2C): non-significant darkening; morphology of 5 day old EBs ([3]; up to 1000 μg/ml, day 5, FIG. 2C): no significant change |
